# According to patent US6906095B2, “Indolylalkylidenehydrazine-carboximidamide derivatives as 5-hydroxytryptamine-6 ligands” (Wyeth, priority 2002, dated 2005):
# Molecular target: T1, human cloned 5-HT6 receptors (Homo sapiens, UniProt P50406)
# T1 construct: expressed in transfected cells; host or cells: Hela cells
# Experiment: 5-HT6 binding affinity, [3H]-LSD displacement in membranes of Hela cells
# Conditions: not given
# T1 sequence (P50406 whole entry): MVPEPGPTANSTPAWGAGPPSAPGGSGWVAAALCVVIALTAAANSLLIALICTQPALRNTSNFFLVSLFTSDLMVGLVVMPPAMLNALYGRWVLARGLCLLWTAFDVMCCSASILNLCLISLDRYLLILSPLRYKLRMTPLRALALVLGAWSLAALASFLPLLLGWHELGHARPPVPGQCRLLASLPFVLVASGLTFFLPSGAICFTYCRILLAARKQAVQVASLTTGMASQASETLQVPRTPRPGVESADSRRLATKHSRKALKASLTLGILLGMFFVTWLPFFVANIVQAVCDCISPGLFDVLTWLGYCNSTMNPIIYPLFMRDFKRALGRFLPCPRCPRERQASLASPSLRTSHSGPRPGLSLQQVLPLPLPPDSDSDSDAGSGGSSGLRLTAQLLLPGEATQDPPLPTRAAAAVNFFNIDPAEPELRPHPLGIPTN
row,SMILES,Ki [nM]
1,"COc1ccc(S(=O)(=O)n2cc(C(C)=NNC(=N)N)c3ccccc32)cc1OC [Example 69, 2-(1-{1-[(3,4-dimethoxyphenyl)sulfonyl]-1H-indol-3-yl}ethylidene)hydrazinecarboximidamide]",12
2,"CC(=NNC(=N)N)c1cn(S(C)(=O)=O)c2cc(F)ccc12 [Example 100, 2-{1-[6-fluoro-1-(methylsulfonyl)-1H-indol-3-yl]ethylidene}hydrazinecarboximidamide]",18
3,"CCCCCNC(=N)NN=C(C)c1cn(S(=O)(=O)c2ccccc2)c2ccccc12 [Example 123, N-Pentyl-2-{1-[1-(phenylsulfonyl)-1H-indol-3-yl]ethylidene}-hydrazinecarboximidamide]",12
4,"CC(=NNC(=N)N)c1cn(S(=O)(=O)c2sc(N)nc2C)c2ccccc12 [Example 22, 2-(1-{1-[(2-amino-4-methyl-1,3-thiazol-5-yl)sulfonyl]-1H-indol-3-yl}ethylidene)hydrazinecarboximidamide]",8
5,"CC(=NNC(=N)N)c1cn(S(=O)(=O)c2ccc(N)cc2)c2ccccc12 [Example 23, 2-(1-{1-[(4-aminophenyl)sulfonyl]-1H-indol-3-yl}ethylidene)hydrazinecarboximidamide]",2
6,"CCC(=NNC(=N)N)c1cn(S(=O)(=O)c2ccc(N)cc2)c2ccc(Cl)cc12 [Example 121, 2-(1-{1-[(4-aminophenyl)sulfonyl]-5-chloro-1H-indol-3-yl}propylidene)hydrazinecarboximidamide]",9

# Same assay, conditions: test compound dose 10 nM; [3H]-LSD 3.0 nM
row,SMILES,inhibition at 0.01 µM [%]
1,"CC(=NNC(=N)N)c1cn(S(=O)(=O)c2ccccc2)c2ccc(C#N)cc12 [Example 16, 2-{1-[5-cyano-1-(phenylsulfonyl)-1H-indol-3-yl]ethylidene}hydrazinecarboximidamide]",40.6
2,"CCCCS(=O)(=O)n1cc(C(=NNC(=N)N)C2CC2)c2cc(Cl)ccc21 [Example 77, 2-[[1-(butylsulfonyl)-5-chloro-1H-indol-3-yl](cyclopropyl)methylidene]hydrazinecarboximidamide]",44.3
3,"CS(=O)(=O)n1cc(C(=NNC(=N)N)C2CC2)c2ccc(F)cc21 [Example 102, 2-{cyclopropyl[6-fluoro-1-(methylsulfonyl)-1H-indol-3-yl]methylidene}hydrazinecarboximidamide]",41.1

# Same assay, conditions: test compound dose 100 nM; [3H]-LSD 3.0 nM
row,SMILES,inhibition at 0.1 µM [%]
1,"COc1ccc(S(=O)(=O)n2cc(C(=NNC(=N)N)C3CC3)c3cc(Cl)ccc32)cc1OC [Example 89, 2-[{5-chloro-1-[(3,4-dimethoxyphenyl)sulfonyl]-1H-indol-3-yl}(cyclopropyl)-methylidene]hydrazinecarboximidamide]",71.9
2,"COc1ccc(S(=O)(=O)n2cc(C(C)=NNC(=N)N)c3ccccc32)cc1OC [Example 69, 2-(1-{1-[(3,4-dimethoxyphenyl)sulfonyl]-1H-indol-3-yl}ethylidene)hydrazinecarboximidamide]",72.4
3,"CC(=NNC(=N)N)c1cn(S(C)(=O)=O)c2cc(F)ccc12 [Example 100, 2-{1-[6-fluoro-1-(methylsulfonyl)-1H-indol-3-yl]ethylidene}hydrazinecarboximidamide]",83.8
4,"CC(=NNC(=N)NCc1ccccn1)c1cn(S(=O)(=O)c2ccccc2)c2ccccc12 [Example 126, 2-{1-[1-(phenylsulfonyl)-1H-indol-3-yl]ethylidene}-N-(pyridin-2-ylmethyl)hydrazinecarboximidamide]",37.7
5,"CC(=NNC(=N)N)c1cn(S(=O)(=O)c2cccc3ccccc23)c2ccccc12 [Example 50, 2-{1-[1-(1-naphthylsulfonyl)-1H-indol-3-yl]ethylidene}hydrazinecarboximidamide]",63.5
6,"CCCCCNC(=N)NN=C(C)c1cn(S(=O)(=O)c2ccccc2)c2ccccc12 [Example 123, N-Pentyl-2-{1-[1-(phenylsulfonyl)-1H-indol-3-yl]ethylidene}-hydrazinecarboximidamide]",34
7,"CC(=NNC(=N)N)c1cn(S(=O)(=O)c2c(Cl)sc(Cl)c2Br)c2ccccc12 [Example 27, 2-(1-{1-[(4-bromo-2,5-dichlorothien-3-yl)sulfonyl]-1H-indol-3-yl}ethylidene)hydrazinecarboximidamide]",33.8
8,"CC(=NNC(=N)N)c1cn(S(=O)(=O)c2sc(N)nc2C)c2ccccc12 [Example 22, 2-(1-{1-[(2-amino-4-methyl-1,3-thiazol-5-yl)sulfonyl]-1H-indol-3-yl}ethylidene)hydrazinecarboximidamide]",90.5
9,"CC(=NNC(=N)N)c1cn(S(=O)(=O)c2ccccc2)c2ccc(F)cc12 [Example 19, 2-{1-[5-fluoro-1-(phenylsulfonyl)-1H-indol-3-yl]ethylidene}hydrazinecarboximidamide]",82.4
10,"CC(=NNC(=N)N)c1cn(S(=O)(=O)c2ccc(N)cc2)c2ccccc12 [Example 23, 2-(1-{1-[(4-aminophenyl)sulfonyl]-1H-indol-3-yl}ethylidene)hydrazinecarboximidamide]",92.9
11,"CC(=NNC(=N)NCCO)c1cn(S(=O)(=O)c2ccccc2)c2ccccc12 [Example 127, N-(2-hydroxyethyl)-2-{1-[1-(phenylsulfonyl)-1H-indol-3-yl]ethylidene}hydrazinecarboximidamide]",83.3
12,"N=C(N)NN=C(c1cn(S(=O)(=O)c2ccc3ccccc3c2)c2cc(F)ccc12)C1CC1 [Example 111, 2-{cyclopropyl[6-fluoro-1-(2-naphthylsulfonyl)-1H-indol-3-yl]methylidene}hydrazinecarboximidamide]",27.6
13,"CC(=NNC(=N)N)c1cn(S(C)(=O)=O)c2ccccc12 [Example 55, 2-{1-[1-(methylsulfonyl)-1H-indol-3-yl]ethylidene}hydrazinecarboximidamide]",68.2
14,"CSc1nccc(-c2ccc(S(=O)(=O)n3cc(C(C)=NNC(=N)N)c4ccccc43)s2)n1 [Example 49, 2-{1-[1-({5-[2-(methylthio)pyrimidin-4-yl]thien-2-yl}sulfonyl)-1H-indol-3-yl]ethylidene}-hydrazinecarboximidamide]",33
15,"CC(=NNC(=N)N)c1cn(S(=O)(=O)c2ccc(OC(F)(F)F)cc2)c2ccccc12 [Example 54, 2-[1-(1-{[4-(trifluoromethoxy)phenyl]sulfonyl}-1H-indol-3-yl)ethylidene]hydrazinecarboximidamide]",26.2

# Same assay, conditions: test compound dose 1000 nM; [3H]-LSD 3.0 nM
row,SMILES,% Inhibition [%]
1,"Cc1ccc(S(=O)(=O)n2cc(C=NNC(=N)N)c3ccccc32)cc1 [Example 3, 2-({1-[(4-methylphenyl)sulfonyl]-1H-indol-3-l}methylidene)hydrazinecarboximidamide]",71.0

# Same assay, conditions: test compound dose 1000 nM; [3H]-LSD 3.0 nM; read-out: % Inhibition
row,SMILES,inhibition at 1 µM [%]
1,"CCCCC(=NNC(=N)N)c1cn(S(=O)(=O)CCCC)c2cc(F)ccc12 [Example 104, 2-{1-[1-(butylsulfonyl)-6-fluoro-1H-indol-3-yl]pentylidene}hydrazinecarboximidamide]",81.3
2,"CCCCC(=NNC(=N)N)c1cn(S(=O)(=O)c2ccc(OC)c(OC)c2)c2ccc(Cl)cc12 [Example 88, 2-(1-{5-chloro-1-[(3,4-dimethoxyphenyl)sulfonyl]-1H-indol-3-yl}pentylidene)hydrazinecarboximidamide]",65.6
3,"CC(=NNC(=N)N)c1cn(S(=O)(=O)c2ccc3ccccc3c2)c2cc(F)ccc12 [Example 109, 2-{1-[6-fluoro-1-(2-naphthylsulfonyl)-1H-indol-3-yl]ethylidene}hydrazinecarboximidamide]",67.8
4,"CC(=NNC(=N)N)c1c(-c2ccc(Cl)cc2)n(S(=O)(=O)c2ccccc2)c2ccccc12 [Example 95, 2-{1-[2-(4-chlorophenyl)-1-(phenylsulfonyl)-1H-indol-3-yl]ethylidene}hydrazinecarboximidamide]",89.6
5,"COc1ccc(S(=O)(=O)n2cc(C(C)=NNC(=N)N)c3ccccc32)cc1 [Example 61, 2-(1-{1-[(4-methoxyphenyl)sulfonyl]-1H-indol-3-yl}ethylidene)hydrazinecarboximidamide]",83.6
6,"N=C(N)N/N=C(\C=C\c1ccccc1Cl)c1cn(S(=O)(=O)c2ccccc2)c2ccccc12 [Example 8, 2-{(E,2E)-3-(2-chlorophenyl)-1-[1-(phenylsulfonyl)-1H-indol-3-yl]prop-2-enylidene}-hydrazinecarboximidamide]",95.2
7,"CCCCC(=NNC(=N)N)c1cn(S(C)(=O)=O)c2cc(F)ccc12 [Example 101, 2-{1-[6-fluoro-1-(methylsulfonyl)-1H-indol-3-yl]pentylidene}hydrazinecarboximidamide]",77.4
